# Like-named read-outs stand apart in the source and are kept apart here.
# Experiments:
# human α2C-adrenoceptor = biological target: T1, human α2C-adrenoceptor (Homo sapiens, UniProt P18825); test: α2C-Adrenoceptor binding experiment ([3H] MK912 displacement, crude membrane sample)
# T1 construct: expressed in transfected cells; host or cells: COS-1 cells
# T1 sequence (P18825 1-462): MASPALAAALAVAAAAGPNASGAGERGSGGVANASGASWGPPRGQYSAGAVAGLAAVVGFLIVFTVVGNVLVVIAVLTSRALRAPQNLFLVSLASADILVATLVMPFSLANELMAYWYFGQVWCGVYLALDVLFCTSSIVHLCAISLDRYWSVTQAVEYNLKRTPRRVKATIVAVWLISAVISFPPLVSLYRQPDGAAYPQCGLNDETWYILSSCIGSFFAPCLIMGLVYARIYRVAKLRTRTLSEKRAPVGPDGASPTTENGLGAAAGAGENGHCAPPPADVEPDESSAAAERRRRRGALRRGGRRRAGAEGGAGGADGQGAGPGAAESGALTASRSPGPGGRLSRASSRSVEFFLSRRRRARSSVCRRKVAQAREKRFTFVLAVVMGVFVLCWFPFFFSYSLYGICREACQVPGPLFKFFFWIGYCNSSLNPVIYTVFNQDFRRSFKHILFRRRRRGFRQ
# Protocol: The subject experiment was performed by a method improved from the method described in Uhlen et al., Journal of Pharmacology and Experimental Therapeutics (1994), 1558-1565. Briefly, human α2C-adrenoceptor expressing COS-1 cells were homogenized with 50 mM Tris-HCl buffer (pH 7.4) containing 12.5 mM magnesium hydrochloride and 1 mM EDTA. The resultant homogenate was centrifuged at 48,000×g for 20 minutes at 4° C. twice. The precipitate was suspended in 50 mM Tris-HCl buffer (pH 7.4) containing 12.5 mM magnesium hydrochloride and 1 mM EDTA to give a protein concentration of 150 μg/ml. This suspension was used in binding experiments as a crude membrane sample. The crude membrane sample (0.5 ml, 75 μg protein) was reacted with [^3H] MK912 (final concentration 0.08 nM) at 25° C. for 60 minutes. After completion of the reaction, the reaction mixture was vacuum filtered on GF/B glass fiber filter pre-immersed in 0.3% polyethyleneimine for 2 hours, using a cell harvester for binding experiments. The filter was placed in a glass vial containing 8 ml of Aquasol 2, and the radioactivity thereof was measured with a liquid scintillation counter. The amount of binding in the presence of 10 μM rauwolcine was taken as non-specific binding. The value obtained by subtracting non-specific binding from the total binding in the absence of 10 μM rauwolcine was taken as specific binding. Each of the test compounds was dissolved in 100% dimethyl sulfoxide solution and added to the membrane sample simultaneously with [^3H] MK912. IC50 values were calculated from inhibition curves at concentrations from 0.1 nM to 1 μM.
# human α2A-adrenoceptor = biological target: T2, human α2A-adrenoceptor (Homo sapiens, UniProt P08913); test: α2A-Adrenoceptor binding experiment ([3H] MK912 displacement, crude membrane sample); conditions: membranes of human α2A-adrenoceptor expressing COS-7 cells; [3H] MK912 1 nM; 25° C., 60 minutes; read-out: Ability to Inhibit (IC50, nM) α 2A
# T2 construct: expressed in transfected cells; host or cells: COS-7 cells
# T2 sequence (P08913 1-465): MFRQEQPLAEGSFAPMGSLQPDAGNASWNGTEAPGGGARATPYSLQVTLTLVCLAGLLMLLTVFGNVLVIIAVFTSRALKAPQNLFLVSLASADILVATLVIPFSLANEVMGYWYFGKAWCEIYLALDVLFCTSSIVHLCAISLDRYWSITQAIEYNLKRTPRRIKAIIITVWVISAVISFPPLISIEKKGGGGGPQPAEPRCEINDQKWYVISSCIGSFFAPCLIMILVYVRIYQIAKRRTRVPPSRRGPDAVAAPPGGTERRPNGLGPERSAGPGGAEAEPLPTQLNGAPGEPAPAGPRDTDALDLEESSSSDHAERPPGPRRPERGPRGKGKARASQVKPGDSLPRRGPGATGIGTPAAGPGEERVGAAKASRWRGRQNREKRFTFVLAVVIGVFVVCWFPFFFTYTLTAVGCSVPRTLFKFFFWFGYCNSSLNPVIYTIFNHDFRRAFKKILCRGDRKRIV
# Protocol: The subject experiment was performed by a method improved from the method described in Uhlen et al., Journal of Pharmacology and Experimental Therapeutics (1994), 1558-1565. Briefly, human α2A-adrenoceptor expressing COS-7 cells were homogenized with 50 mM Tris-HCl buffer (pH 7.4) containing 12.5 mM magnesium hydrochloride and 1 mM EDTA. The resultant homogenate was centrifuged at 48,000×g for 20 minutes at 4° C. twice. The precipitate was suspended in 50 mM Tris-HCl buffer (pH 7.4) containing 12.5 mM magnesium hydrochloride and 1 mM EDTA to give a protein concentration of 200 μg/ml. This suspension was used in binding experiments as a crude membrane sample. The crude membrane sample (0.1 ml, 20 μg protein, reaction volume 0.2 ml) was reacted with [^3H] MK912 (final concentration 1 nM) at 25° C. for 60 minutes. After completion of the reaction, the reaction mixture was vacuum filtered on GF/C glass fiber plate pre-immersed in 0.3% polyethyleneimine for 2 hours, using a Filtermate Harvester. Microscinti-0 (40 μl) was added to the plate, and the radioactivity was measured with Top Count (PerkinElmer). The amount of binding in the presence of 10 μM rauwolcine was taken as non-specific binding. The value obtained by subtracting non-specific binding from the total binding in the absence of 10 μM rauwolcine was taken as specific binding. Each of the test compounds was dissolved in 100% DMSO solution and added to the membrane sample simultaneously with [^3H] MK912. IC50 values were calculated from inhibition curves at concentrations from 1 nM to 10 μM.
# [1] = membranes of human α2C-adrenoceptor expressing COS-1 cells, [3H] MK912 0.08 nM, 25° C., 60 minutes, read-out: Ability to Inhibit (IC50, nM) α 2C
Compound,IC50 (human α2C-adrenoceptor; [1]),IC50 (human α2A-adrenoceptor),melting point,IC50 (human α2C-adrenoceptor)
"N#CC(CCCN1CCc2[nH]c3ccccc3c2C1)(c1ccccc1)c1ccccc1 [Compound 8, 2,2-diphenyl-5-(1,3,4,5-tetrahydro-2H-pyrido[4,3-b]indole-2-yl)-pentanenitrile]",121 nM,1290 nM,–,–
"N#CC(CCCN1CCc2oc3ccc(Cl)cc3c2C1)(c1ccccc1)c1ccccc1 [Compound 11, 5-(8-chloro-3,4-dihydro-[1]-benzofuro[3,2-C]pyridine-2(1H)-yl)-2,2-diphenyl-pentanenitrile]",203 nM,1720 nM,–,–
"COC(=O)C(CCCN1CCc2oc3ccccc3c2C1)(c1ccc(F)cc1)c1ccc(F)cc1 [Compound 1, Methyl 5-(3,4-dihydro[1]benzofuro[3,2-c]pyridine-2(1H)-yl)-2,2-bis(4-fluorophenyl)pentanoate]",28 nM,416 nM,–,–
"N#CC1(CCCN2CCc3oc4ccccc4c3C2)c2ccccc2Oc2ccccc21 [Compound 16, 9-[3-(3,4-dihydro-[1]-benzofuro[3,2-C]pyridine-2(1H)-yl)-propyl]-9H-xanthene-carbonitrile]",12 nM,102 nM,–,–
"N#CC(CCCN1CCc2oc3ccc(F)cc3c2C1)(c1ccccc1)c1ccccc1 [Compound 10, 5-(8-fluoro-3,4-dihydro-[1]-benzofuro[3,2-C]pyridine-2(1H)-yl)-2,2-diphenyl-pentanenitrile]",–,504 nM,–,28 nM
"Cl.NC(=O)C(CCCN1CCc2oc3ccccc3c2C1)(c1ccc(F)cc1)c1ccc(F)cc1 [Compound 3, 5-(3,4-dihydro[1]benzofuro[3,2-c]pyridine-2(1H)-yl)-2,2-bis(4-fluorophenyl)pentanoic acid amide]",5.8 nM,204 nM,174 to 179.5 °C,–
"O=C(O)C(CCCN1CCc2oc3ccccc3c2C1)(c1ccc(F)cc1)c1ccc(F)cc1 [Compound 2, 5-(3,4-dihydro[1]benzofuro[3,2-c]pyridine-2(1H)-yl)-2,2-bis(4-fluorophenyl)pentanoic acid]",142 nM,935 nM,–,–

# Further lines, with some results ahead:
IC50 (human α2C-adrenoceptor; [1]),IC50 (human α2A-adrenoceptor),melting point,Compound,IC50 (human α2C-adrenoceptor)
299 nM,1480 nM,–,"N#CC(CCCN1CCc2sc3ccccc3c2C1)(c1ccccc1)c1ccccc1 [Compound 7, 5-(3,4-dihydro-[1]-benzothieno[3,2-C]pyridine-2(1H)-yl)-2,2-diphenyl-pentanenitrile]",–
10 nM,243 nM,–,"c1ccc(C(CCCN2CCc3oc4ccccc4c3C2)c2ccccc2)cc1 [Compound 15, 2-(4,4-diphenylbutyl)-1,2,3,4-tetrahydro-[1]-benzofuro[3,2-C]pyridine]",–
53 nM,563 nM,–,"COc1ccc2oc3c(c2c1)CN(CCCC(C#N)(c1ccccc1)c1ccccc1)CC3 [Compound 13, 5-(8-methoxy-3,4-dihydro-[1]-benzofuro[3,2-C]pyridine-2(1H)-yl)-2,2-diphenyl-pentanenitrile]",–
280 nM,4830 nM,–,"Cn1c2c(c3ccccc31)CN(CCCC(C#N)(c1ccccc1)c1ccccc1)CC2 [Compound 9, 5-(5-methyl-1,3,4,5-tetrahydro-2H-pyrido[4,3-b]indole-2-yl)-2,2-diphenyl-pentanenitrile]",–
5.7 nM,139 nM,195 to 199 °C,"Cl.N#CC(CCCN1CCc2oc3ccccc3c2C1)(c1ccccc1)c1ccccc1 [Compound 5, 5-(3,4-dihydro[1]benzofuro[3,2-c]pyridine-2(1H)-yl)-2,2-diphenylpentanenitrile]",–
9.3 nM,136 nM,113.5 to 120.5 °C,"Cl.N#CC(CCCN1CCc2oc3ccccc3c2C1)(c1ccc(F)cc1)c1ccc(F)cc1 [Compound 4, 5-(3,4-dihydro[1]benzofuro[3,2-c]pyridine-2(1H)-yl)-2,2-bis(4-fluorophenyl)pentanenitrile]",–

# Reference: patent US7601734B2, “Cyclic amine compound” (Taisho Pharmaceutical Co., Ltd., priority 2004, dated 2009)
